Measurements from patent publication US12139492B2 (Endotarget Inc., priority 2021, dated 2024).
pIC50: −log10 of the molar value. Like-named read-outs stand apart in the source and are kept apart here.

Key:
Mino cells = test: Antiproliferative effect, MTS cell viability assay, Mino cells; type: cell-based; settings: Homo sapiens, Mino mantle cell lymphoma cells, read-out: IC50 (anti-proliferation) Mino cells
In short: (§1)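 Cells were exposed to compound at 0, 0.001, 0.01, 0.1, 1 and 10 μM for 72 h. Viability was then measured by MTS assay, reading formazan produced by metabolically active cells as absorbance at 490 nm.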

JeKo-1 cells = test: Antiproliferative effect, MTS cell viability assay, JeKo-1 cells; type: cell-based; settings: Homo sapiens; JeKo-1 mantle cell lymphoma cells; read-out: IC50 (anti-proliferation) JeKO-1 cells
In short: as §1

BTK [1] = target: T1, BTK (Homo sapiens, UniProt Q06187); test: BTK degradation, DC50 and Dmax of Table 1 (cell line not given); type: cell-based; parameters: endogenous in cells; settings: for DC50: concentration giving 50% reduction of BTK expression level
T1 sequence (Q06187 whole entry): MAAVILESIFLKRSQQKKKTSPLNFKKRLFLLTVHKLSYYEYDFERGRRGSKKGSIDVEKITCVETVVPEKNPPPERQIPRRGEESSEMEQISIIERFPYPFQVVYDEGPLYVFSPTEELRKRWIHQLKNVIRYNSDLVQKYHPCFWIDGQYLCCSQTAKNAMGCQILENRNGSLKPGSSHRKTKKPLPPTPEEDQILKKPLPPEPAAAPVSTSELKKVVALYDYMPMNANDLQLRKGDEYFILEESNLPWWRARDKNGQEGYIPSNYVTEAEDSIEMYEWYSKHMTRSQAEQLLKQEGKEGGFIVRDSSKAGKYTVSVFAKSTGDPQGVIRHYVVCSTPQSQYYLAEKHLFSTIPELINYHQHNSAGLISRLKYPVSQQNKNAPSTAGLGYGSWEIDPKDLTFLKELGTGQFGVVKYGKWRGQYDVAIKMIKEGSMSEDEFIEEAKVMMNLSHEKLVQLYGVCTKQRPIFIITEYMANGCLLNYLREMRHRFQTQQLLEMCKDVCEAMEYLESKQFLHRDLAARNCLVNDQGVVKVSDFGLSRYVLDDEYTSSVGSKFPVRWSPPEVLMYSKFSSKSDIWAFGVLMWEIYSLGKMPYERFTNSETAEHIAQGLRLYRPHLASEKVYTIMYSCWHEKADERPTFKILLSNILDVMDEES

BTK [2] = target: T1, BTK; test: Degradation of BTK protein in Mino cells (Western blot; DC50, Dmax); settings: Mino mantle cell lymphoma cells, various concentrations, 24 hours
Experimental: (§5) Namalwa, JeKo-1, or Mino cells were plated in 24-well plates at a density of 10^5 cells/well. Media containing various drug concentrations were added on the day following plating (day 0) and allowed to incubate for 24 hours for Western blot. Media with the tested compound was changed every other day. […] Media were removed and dishes were washed with 1×DPBS. Lysates were made by adding 150 μL of complete lysis solution and scraping cells into a 1.5 mL microcentrifuge tube. Lysates were placed on a rotisserie at 4° C. for 30 min and then spun at 4° C. at 12000 rcf for 10 min. Supernatants were assayed for protein content, snap-frozen, and stored a −80° C. if not run immediately. Then 50 μg of protein was subjected to Western blot protocol. […] They were then imaged on a LICOR infrared scanner.

BTK [3] = target: T1, BTK; test: Degradation of BTK protein in JeKo-1 cells (Western blot; DC50, Dmax); settings: JeKo-1 mantle cell lymphoma cells, various concentrations, 24 hours
Experimental: as §5

BTK [4] = target: T1, BTK; test: Degradation of BTK protein in Namalwa cells (Western blot; DC50, Dmax); settings: Namalwa B lymphocyte cells, Western blot; for degradation of BTK protein: various concentrations, 24 hours
MOLT-4 cell = test: Cell apoptosis by flow cytometry, MOLT-4 cells; type: cell-based; settings: 1 and 10 μM, 72 hours, in vitro
Experimental: (§2) Cell apoptosis induced by treatment of exemplary compounds was measured by flow cytometry.
(§3) Flow cytometry analysis was performed after staining of the cells with PI and 7-AAD. For PI staining, 0.5×10^6 cells/mL were centrifuged at 1500 rpm for 5 min, supernatant was removed, and cell pellet was gently suspended with 1 ml Krishan buffer and then incubated at 4° C. in the dark for 60 min. Apoptosis was determined by Cytomic's FC500 Flow Cytometer (Beckman Coulter) and the data were analyzed by Win Cycle Multicycle Software (De Novo Software). For the 7-AAD staining, 0.5×10^6 cells were washed with PBS and centrifuged at 1500 rpm for 5 min. Supernatant was removed and the cell pellet was suspended in 100 μL PBS. 10 μL 7-AAD was added to each tube and incubated for 20 min at room temperature in the dark. 7-AAD labeled-cells were analyzed by Cytomic's FC500 Flow Cytometry (Beckman Coulter) and FCS Express Flow Cytometry Data Analysis software (DeNovo Software). For morphologic analysis of apoptosis by light microscopy, cells were incubated with Mock or with […] for 72 h. Control or drug treated-cells were cytospun on glass slides, stained with Wright-Giemsa, and then examined by light microscopy. Morphological changes associated with apoptosis included cellular shrinkage, nuclear condensation, nuclear fragmentation, and formation of apoptotic bodies. […]

Namalwa cell = test: Cell apoptosis by flow cytometry, Namalwa cells; type: cell-based; settings: 1 and 10 μM, 72 hours, in vitro
Experimental: as §2, §3

JeKo-1 cell = test: Cell apoptosis by flow cytometry, JeKo-1 cells; type: cell-based; settings: 0.1, 1, and 10 μM, 72 hours, in vitro
Experimental: as §2, §3

Mino cell = test: Cell apoptosis by flow cytometry, Mino cells; type: cell-based; settings: 1 and 10 μM, 72 hours, in vitro
Experimental: as §2, §3

[5] = tested on: primary human CLL cell CTG-3763; test: Ex vivo cell inhibition, Cell Titer Glo viability, primary CLL cell CTG-3763; type: cell-based; settings: 10 nM to 50 μM, 6 days
Experimental: (§4) Primary human Human Chronic Lymphocytic Leukemia cell lines were used to measure ex vivo cell inhibition by exemplary compounds. The cells were incubated with test compounds at a dose range of 10 nM to 50 μM for 6 days. Cell Titer Glo data were gathered for cell viability evaluation.

[6] = tested on: primary human CLL cell CTG-3754; test: Ex vivo cell inhibition, Cell Titer Glo viability, primary CLL cell CTG-3754; type: cell-based; settings: 10 nM to 50 μM, 6 days
Experimental: as §4

Jeko-1 xenograft tumor = test: In vivo tumor inhibition efficacy, JeKo-1 xenograft in NOD/SCID mice; settings: 20 mg/kg daily oral gavage for 3 weeks
Experimental: JeKo-1 cells were obtained from American Type Culture Collection (ATCC, Manassas, VA). cells were maintained in RPMI 1640 (Life Technologies, Grand Island, NY) supplemented with 10% heat-inactivated fetal bovine serum (56° C. for 30 minutes), penicillin (10,000 units/mL; Sigma, St Louis, Mo), streptomycin (10 mg/mL; Sigma), gentamicin (50 mg/mL; Life Technologies), amphotericin B (25 mg/mL; Sigma), and L-glutamine (200 mM, 29.2 mg/mL; Life Technologies). culture, as previously described (29, 30). JeKo-1 cells (10 million) were subcutaneously implanted into the flank of NOD/SCID mice. When the average tumor volume reached approximately 300 mm^3, the following treatments were administered in cohorts of 5 mice for each treatment: vehicle alone, 20 mg/kg ibrutinib, 20 mg/kg Compound 2, and 20 mg/kg Compound 161 was administered daily via oral gavage for 3 weeks. Tumor growth was monitored every other day by calipers and tumor volume was calculated using the equation: (½(length×width^2)).

Compound | Dmax (BTK [1]) [%] | DC50 (BTK [1]) [nM] | degradation of BTK protein (BTK [3]) | degradation of BTK protein at 10^−6 M (BTK [4]) | degradation of BTK protein (BTK [4]) | pIC50 (Mino cells; MINO) | pIC50 (JeKo-1 cells) | degradation of BTK protein (BTK [2]) | pIC50 (Mino cells) | induction of cell apoptosis (MOLT-4 cell) | induction of cell apoptosis (Namalwa cell) | induction of cell apoptosis (JeKo-1 cell) | induction of cell apoptosis (Mino cell) | effect on primary human CLL cell viability [5] | effect on primary human CLL cell viability [6] | efficacy in inhibiting xenograft tumor growth (Jeko-1 xenograft tumor)
Nc1ncnc2c1c(-c1ccc(Oc3ccccc3)cc1)nn2[C@@H]1CCCN(C2CCN(C(=O)N3CCC(N4CCN(c5ccc6c(c5)CN(C5CCC(=O)NC5=O)C6=O)CC4)CC3)CC2)C1 (stereo partly drawn) [Compound 162, 3-(5-(4-(1-((R)-3-(4-amino-3-(4-phenoxyphenyl)-1H-pyrazolo(3,4-d)pyrimidin-1-yl)-(1,4′-bipiperidine)-1′-carbonyl)piperidin-4-yl)piperazin-1-yl)-1-oxoisoindolin-2-yl)piperidine-2,6-dione] | > 90 | < 10 | dose-dependent degradation |  | dose-dependent degradation |  | > 6.00 | dose-dependent degradation | > 6.00 |  |  |  |  |  |  | 
Nc1ncnc2c1c(-c1ccc(Oc3ccccc3)cc1)nn2C1CCN(CCOCCOCCN2CCN(c3ccc4c(c3)C(=O)N(C3CCC(=O)NC3=O)C4=O)CC2)CC1 (centres unmarked) [Compound 1] | > 90 | 10 to 50 |  |  | dose-dependent degradation | 5.00 to 6.00 | 5.00 to 6.00 |  |  |  |  |  |  | dose-dependent effect | dose-dependent effect | 
Nc1ncnc2c1c(-c1ccc(Oc3ccccc3)cc1)nn2[C@@H]1CCCN(C2CCN(C(=O)N3CCC(N4CCN(c5ccc6c(c5)C(=O)N(C5CCC(=O)NC5=O)C6=O)CC4)CC3)CC2)C1 (stereo partly drawn) [Compound 161, 5-(4-(1-((R)-3-(4-amino-3-(4-phenoxyphenyl)-1H-pyrazolo(3,4-d)pyrimidin-1-yl)-(1,4′-bipiperidine)-1′-carbonyl)piperidin-4-yl)piperazin-1-yl)-2-(2,6-dioxopiperidin-3-yl)isoindoline-1,3-dione] | > 90 | 10 to 50 |  | degradation | dose-dependent degradation | > 6.00 | > 6.00 |  |  |  |  |  |  |  |  | inhibiting Jeko-1 xenograft tumor growth
Nc1ncnc2c1c(-c1ccc(Oc3ccccc3)cc1)nn2[C@@H]1CCCN(CC2CCN(C(=O)N3CCC(N4CCN(c5ccc6c(c5)CN(C5CCC(=O)NC5=O)C6=O)CC4)CC3)CC2)C1 (stereo partly drawn) [Compound 28, 3-(5-(4-(1-(4-(((R)-3-(4-amino-3-(4-phenoxyphenyl)-1H-pyrazolo(3,4-d)pyrimidin-1-yl)piperidin-1-yl)methyl)piperidine-1-carbonyl)piperidin-4-yl)piperazin-1-yl)-1-oxoisoindolin-2-yl)piperidine-2,6-dione] | > 90 | 10 to 50 | dose-dependent degradation |  | dose-dependent degradation |  | 5.00 to 6.00 | dose-dependent degradation | > 6.00 |  |  |  |  |  |  | 

The next lines start with results.

Dmax (BTK [1]) [%] | DC50 (BTK [1]) [nM] | degradation of BTK protein (BTK [3]) | degradation of BTK protein at 10^−6 M (BTK [4]) | degradation of BTK protein (BTK [4]) | Compound | pIC50 (Mino cells; MINO) | pIC50 (JeKo-1 cells) | degradation of BTK protein (BTK [2]) | pIC50 (Mino cells) | induction of cell apoptosis (MOLT-4 cell) | induction of cell apoptosis (Namalwa cell) | induction of cell apoptosis (JeKo-1 cell) | induction of cell apoptosis (Mino cell) | effect on primary human CLL cell viability [5] | effect on primary human CLL cell viability [6] | efficacy in inhibiting xenograft tumor growth (Jeko-1 xenograft tumor)
> 90 | < 10 | dose-dependent degradation | degradation | dose-dependent degradation | Nc1ncnc2c1c(-c1ccc(Oc3ccccc3)cc1)nn2[C@@H]1CCCN(CC2CCN(C(=O)N3CCC(N4CCN(c5ccc6c(c5)C(=O)N(C5CCC(=O)NC5=O)C6=O)CC4)CC3)CC2)C1 (stereo partly drawn) [Compound 27, 5-(4-(1-(4-(((R)-3-(4-amino-3-(4-phenoxyphenyl)-1H-pyrazolo(3,4-d)pyrimidin-1-yl)piperidin-1-yl)methyl)piperidine-1-carbonyl)piperidin-4-yl)piperazin-1-yl)-2-(2,6-dioxopiperidin-3-yl)isoindoline-1,3-dione] | 5.00 to 6.00 | > 6.00 | dose-dependent degradation |  |  |  |  |  |  |  | 
> 90 | < 10 | dose-dependent degradation |  | dose-dependent degradation | Nc1ncnc2c1c(-c1ccc(Oc3ccccc3)cc1)nn2C1CCN(CCOCCOCCN2CCN(c3ccc4c(c3)CN(C3CCC(=O)NC3=O)C4=O)CC2)CC1 (centres unmarked) [Compound 2, 3-(5-(4-(2-(2-(2-(4-(4-amino-3-(4-phenoxyphenyl)-1H-pyrazolo(3,4-d)pyrimidin-1-yl)piperidin-1-yl)ethoxy)ethoxy)ethyl)piperazin-1-yl)-1-oxoisoindolin-2-yl)piperidine-2,6-dione] | > 6.00 | > 6.00 |  |  | induction of MOLT-4 cell apoptosis | induction of Namalwa cell apoptosis | induction of JeKo-1 cell apoptosis | induction of Mino cell apoptosis | dose-dependent effect | dose-dependent effect | inhibiting Jeko-1 xenograft tumor growth
> 90 | < 10 | dose-dependent degradation |  | dose-dependent degradation | Nc1ncnc2c1c(-c1ccc(Oc3ccccc3)cc1)nn2[C@@H]1CCCN(C(=O)N2CCC(N3CCN(c4ccc5c(c4)CN(C4CCC(=O)NC4=O)C5=O)CC3)CC2)C1 (stereo partly drawn) [Compound 52, 3-(5-(4-(1-((R)-3-(4-amino-3-(4-phenoxyphenyl)-1H-pyrazolo(3,4-d)pyrimidin-1-yl)piperidine-1-carbonyl)piperidin-4-yl)piperazin-1-yl)-1-oxoisoindolin-2-yl)piperidine-2,6-dione] | > 6.00 | > 6.00 | dose-dependent degradation |  |  |  |  |  |  |  | 
